One assay relates to Leishmania braziliensis. The experiment in a line: Antileishmanial activity against promastigote form of Leishmania braziliensis assessed as parasite growth inhibition. The class given is functional.
Assay [1] relates to Mycobacterium tuberculosis. Description: Antimycobacterial activity against Mycobacterium tuberculosis H37Rv assessed as bacterial growth inhibition by microplate alamar blue assay. The class given is functional. (In general: Alamar Blue is a resazurin reagent that responds to reducing activity.)
A further assay deals with Plasmodium falciparum. Description: Antimalarial activity against chloroquine-resistant Plasmodium falciparum assessed as parasite growth inhibition measured for 24 to 72 hrs. The class given is functional, organism-based.

This passage reports IC90, MIC and IC50 results from ChEMBL document CHEMBL5096154, “A comprehensive review on the biological interest of quinoline and its derivatives” (Bioorg Med Chem, 2021).

Structures are written as SMILES. ≈ marks a conversion by molar mass, not a printed value.

Broadly, the IC90 is the point of the concentration-response curve where the effect stands at 90%. For orientation: MIC means the lowest concentration found to suppress growth. A word on the IC50: it is the concentration at which inhibition is half-maximal.

For the compound `CC1OC1c1ccc2ccccc2n1` (stereo unspecified), the IC90 in the assay with Leishmania braziliensis was determined as 25 µg/mL (≈ 135 µM). Regarding `CCCc1ccc2ccccc2n1`, the IC90 in the assay on Leishmania braziliensis turned out to be 20 µg/mL (≈ 117 µM). As to `COc1ccc(-c2nc3ncccc3c3ccoc23)cc1`, in assay [1], the MIC came to 5.6 µM.

In the case of `CN1c2ccccc2CCC1CCc1ccc2c(c1)OCO2` (stereo unspecified), the IC50 with Plasmodium falciparum came out at 276 nM.

For the compound `C/C=C/c1ccc2ccccc2n1` [CHIMANINE B], the IC90 with Leishmania braziliensis turned out to be 25 µg/mL (≈ 148 µM).

Turning to `CC[C@@H](CO)NCCN[C@@H](CC)CO` [ETHAMBUTOL], the MIC in assay [1] worked out at 7.6 µM.
